Read-outs that look alike come from different tables or passages of the source.
Tests used:
[1] = system: bone marrow blasts; assay: Phase 1: efficacy; type: in vivo, human
[2] = system: aurora kinase B substrate pHH3; assay: Western blot of PBMCs from patient blood; type: in vivo, human
[3] = system: Aurora B; conditions: @ 3 nM; cited from earlier work
[4] = Phase 1: plasma pharmacokinetics, Cycle 1; type: in vivo, human; conditions: for clearance / Tmax / AUC(0-inf) / Cmax: human
[5] = system: RSK-1; conditions: read-out: IC50 RSK-1; cited from earlier work
[6] = type: in vivo, human
[7] = system: Aurora A; conditions: @ 3 nM; cited from earlier work
[8] = system: Lck; conditions: read-out: IC50 Lck; cited from earlier work
[9] = system: Src; conditions: read-out: IC50 Src; cited from earlier work
[10] = system: c-kit; conditions: @ 250 nM; cited from earlier work
[11] = system: Fit3; conditions: @ 15 nM; cited from earlier work
[12] = system: AML; conditions: eight of 32 adult AML patients; cited from earlier work
[13] = plasma, intravenous, 144 mg/m^2
[14] = plasma, intravenous, 160 mg/m^2
[15] = plasma, intravenous, 200 mg/m^2
[16] = plasma, intravenous, 216 mg/m^2

O=C(Nc1c[nH]nc1-c1nc2ccc(CN3CCOCC3)cc2[nH]1)NC1CC1 [AT9283]
reduction in bone marrow blasts ([1]; Patient B, MTD 108 mg/m^2/day over 72h, 2 cycles, 62% at baseline v 32% at follow-up): 48%
objective remission (complete and partial) ([1]; all patients): no objective or partial remissions were observed
reduction in bone marrow blasts ([1]; approximately one-third of patients with relapsed/refractory AML): ≥ 38%
benefit in accelerated phase CML ([1]; both patients with accelerated phase CML, cytogenetic response in 1): evidence of benefit
benefit in myeloproliferative disease ([1]; patients with myeloproliferative disease): no sustained evidence of treatment benefit
pHH3 phosphorylation in PBMCs ([2]; 3 mg/m^2/day (9 mg/m^2/72h), two of three patients): inhibition of pHH3 phosphorylation was observed
phosphorylation of aurora kinase B substrate pHH3 in PBMCs ([2]; MTD 108 mg/m^2/day (324 mg/m^2/72h), two of three patients): rapid inhibition of phosphorylation
inhibition of Aurora B [3]: 58% @ 3 nM
dose proportionality of exposure ([4]; Cmax and AUC0-inf): generally proportional to dose
clearance ([4]; in vivo): 5.36 mL/min/kg
Tmax ([4]; in vivo, Tmax): 53.8 h
Tmax ([4]; in vivo, Tmax of mean maximum plasma concentrations): 41 to 62 h
AUC(0-inf) ([4]; plasma, intravenous, 9 mg/m^2): 465 ng·h/mL
Cmax ([4]; plasma, intravenous, 9 mg/m^2): 7.35 ng/mL
clearance ([4]; plasma, intravenous, 9 mg/m^2): 9.52 mL/min/kg
Tmax ([4]; plasma, intravenous, 9 mg/m^2, Tmax, Cycle 1 mean plasma, 9 mg/m^2, 72 hr infusion (n=3)): 47.2 h
AUC(0-inf) ([4]; plasma, intravenous, 18 mg/m^2): 1070 ng·h/mL
Cmax ([4]; plasma, intravenous, 18 mg/m^2): 18.1 ng/mL
clearance ([4]; plasma, intravenous, 18 mg/m^2): 7.17 mL/min/kg
Tmax ([4]; plasma, intravenous, 18 mg/m^2, Tmax, Cycle 1 mean plasma, 18 mg/m^2, 72 hr infusion (n=3)): 62 h
AUC(0-inf) ([4]; plasma, intravenous, 36 mg/m^2): 2860 ng·h/mL
Cmax ([4]; plasma, intravenous, 36 mg/m^2): 41.1 ng/mL
clearance ([4]; plasma, intravenous, 36 mg/m^2): 6.03 mL/min/kg
Tmax ([4]; plasma, intravenous, 36 mg/m^2, Tmax, Cycle 1 mean plasma, 36 mg/m^2, 72 hr infusion (n=7)): 53.2 h
AUC(0-inf) ([4]; plasma, intravenous, 72 mg/m^2): 16300 ng·h/mL
Cmax ([4]; plasma, intravenous, 72 mg/m^2): 131 ng/mL
clearance ([4]; plasma, intravenous, 72 mg/m^2): 1.84 mL/min/kg
Tmax ([4]; plasma, intravenous, 72 mg/m^2, Tmax, Cycle 1 mean plasma, 72 mg/m^2, 72 hr infusion (n=3)): 46.7 h
AUC(0-inf) [4, 13]: 14300 ng·h/mL
Cmax [4, 13]: 229 ng/mL
clearance [4, 13]: 4.27 mL/min/kg
Tmax ([4]; plasma, intravenous, 144 mg/m^2, Tmax, Cycle 1 mean plasma, 144 mg/m^2, 72 hr infusion (n=4)): 54.7 h
AUC(0-inf) [4, 14]: 13700 ng·h/mL
Cmax [4, 14]: 164 ng/mL
clearance [4, 14]: 5.61 mL/min/kg
Tmax ([4]; plasma, intravenous, 160 mg/m^2, Tmax, Cycle 1 mean plasma, 160 mg/m^2, 96 hr infusion (n=12)): 59.3 h
AUC(0-inf) [4, 15]: 19100 ng·h/mL
Cmax [4, 15]: 184 ng/mL
clearance [4, 15]: 4.58 mL/min/kg
Tmax ([4]; plasma, intravenous, 200 mg/m^2, Tmax, Cycle 1 mean plasma, 200 mg/m^2, 120 hr infusion (n=4)): 69 h
AUC(0-inf) [4, 16]: 13000 ng·h/mL
Cmax [4, 16]: 228 ng/mL
clearance [4, 16]: 7.13 mL/min/kg
Tmax ([4]; plasma, intravenous, 216 mg/m^2, Tmax, Cycle 1 mean plasma, 216 mg/m^2, 72 hr infusion (n=3)): 41.3 h
Cmax ([4]; plasma, intravenous, 486 mg/m^2): 1280 ng/mL
Tmax ([4]; plasma, intravenous, 486 mg/m^2, Tmax, Cycle 1 mean plasma, 486 mg/m^2, 72 hr infusion (n=3)): 51 h
deaths ([6]; 13 deaths of 48 patients): 27%
MTD ([6]; 72-hour continuous infusion every 21 days): 324 mg/m^2/72h
MTD ([6]; 72-hour infusion): 108 mg/m^2/day
AE incidence overall: constipation ([6]; human, in vivo): 21%
AE incidence overall: diarrhea ([6]; human, in vivo): 29%
AE incidence overall: epistaxis ([6]; human, in vivo): 17%
AE incidence overall: fatigue ([6]; human, in vivo): 27%
AE incidence overall: febrile neutropenia ([6]; human, in vivo): 25%
AE incidence overall: gastrointestinal disorders ([6]; human, in vivo): 75%
AE incidence overall: headache ([6]; human, in vivo): 21%
AE incidence overall: nausea ([6]; human, in vivo): 29%
AE incidence overall: peripheral edema ([6]; human, in vivo): 25%
AE incidence overall: pneumonia ([6]; human, in vivo): 29%
AT9283-related AE incidence: alopecia ([6]; human, in vivo): 8%
AT9283-related AE incidence: nausea ([6]; human, in vivo): 15%
AT9283-related AE incidence: stomatitis ([6]; human, in vivo): 13%
incidence of cardiac tachyarrythmias ([6]; human, in vivo): 15%
patients withdrawn after treatment due to AEs ([6]; human, in vivo): 15%
incidence of AEs (highest) ([6]; human, in vivo, 72 h): 100%
incidence of AEs (lowest) ([6]; human, in vivo, 72 h): 29%
DLTs ([6]; in vivo): myocardial infarction, hypertension, cardiomyopathy, tumor lysis syndrome, pneumonia, and multiorgan failure
left ventricular ejection fraction (LVEF) after severe drop ([6]; in vivo): 20–25%
tolerability of regimen ([6]; in vivo): unacceptably toxic
inhibition of Aurora A [7]: 52% @ 3 nM
IC50 [8]: 63 nM
IC50 [9]: 97 nM
inhibition of c-kit [10]: 46% @ 250 nM
inhibition of Fit3 [11]: 57% @ 15 nM

CCN(CCCOc1ccc2c(Nc3cc(CC(=O)Nc4cccc(F)c4)n[nH]3)ncnc2c1)CCOP(=O)(O)O [AZD1152]
haematologic response according to IWG AML criteria [12]: 25%
